Measurements from US9102648B1, “Bioavailable diacylhydrazine ligands for modulating the expression of exogenous genes via an ecdysone receptor complex” (Intrexon Corporation, priority 2003, dated 2015).

Columns and labels:
[1] = target: T1, Bombyx mori EcR (VP16 fusion, CVBE switch construct) (Bombyx mori, UniProt P49881); assay: Z3 Assay (HEK-293 cells with CVBE and 6XEcRE LacZ, β-galactosidase reporter); conditions: for Fold Induction, Z3 Assay, 3.3 uM: 3.3 uM ligand; for Fold Induction, Z3 Assay, 3.3 uM / Fold Induction, Z3 Assay, 33 uM: ligand treated / DMSO treated cells; for Fold Induction, Z3 Assay, 3.3 uM / Fold Induction, Z3 Assay, 33 uM / EC50: average of two wells; for Fold Induction, Z3 Assay, 33 uM: 33 uM ligand; for Z3 assay Rel Max FI: maximum fold induction at any concentration relative to that of GS-E ligand; for Z3 assay Rel Max FI / EC50: HEK-293 Z3 cells; for EC50: read-out: Z3 assay EC50, β-galactosidase reporter
T1 sequence (P49881 86-606): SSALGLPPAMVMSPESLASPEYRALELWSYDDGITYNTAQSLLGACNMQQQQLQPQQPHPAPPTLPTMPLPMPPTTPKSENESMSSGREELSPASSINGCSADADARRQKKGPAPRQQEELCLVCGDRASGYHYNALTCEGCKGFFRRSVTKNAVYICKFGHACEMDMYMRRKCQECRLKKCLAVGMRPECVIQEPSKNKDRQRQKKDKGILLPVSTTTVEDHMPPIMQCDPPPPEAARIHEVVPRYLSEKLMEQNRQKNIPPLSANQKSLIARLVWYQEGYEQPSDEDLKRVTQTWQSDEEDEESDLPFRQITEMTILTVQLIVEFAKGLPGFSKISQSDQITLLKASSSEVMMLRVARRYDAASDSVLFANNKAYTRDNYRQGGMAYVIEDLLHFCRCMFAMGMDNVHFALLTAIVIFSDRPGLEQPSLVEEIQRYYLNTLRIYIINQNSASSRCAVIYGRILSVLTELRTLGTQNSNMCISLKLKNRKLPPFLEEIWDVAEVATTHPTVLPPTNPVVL
T1 sequence (P19793 1-462 partner): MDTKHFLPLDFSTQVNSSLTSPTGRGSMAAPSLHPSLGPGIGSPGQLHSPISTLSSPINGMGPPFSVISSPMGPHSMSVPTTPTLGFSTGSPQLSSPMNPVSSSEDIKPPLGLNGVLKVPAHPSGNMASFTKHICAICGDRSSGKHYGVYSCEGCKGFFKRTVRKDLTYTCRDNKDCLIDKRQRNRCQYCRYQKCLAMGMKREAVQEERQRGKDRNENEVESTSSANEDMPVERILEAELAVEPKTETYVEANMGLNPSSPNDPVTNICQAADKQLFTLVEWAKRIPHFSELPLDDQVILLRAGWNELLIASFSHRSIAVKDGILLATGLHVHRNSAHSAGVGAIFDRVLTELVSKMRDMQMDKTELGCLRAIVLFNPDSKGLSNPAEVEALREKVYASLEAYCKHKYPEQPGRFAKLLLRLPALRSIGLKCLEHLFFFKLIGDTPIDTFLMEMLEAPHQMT

[2] = target: GAL4 DBD-CfEcR(DEF)/VP16AD-MmRXRE (Choristoneura fumiferana, UniProt O77240); assay: 13B3 Assay (CHO stable cell line, luciferase reporter); conditions: for Fold Induction, 13B3 Assay, 3.3 uM: 3.3 uM ligand; for Fold Induction, 13B3 Assay, 3.3 uM / Fold Induction, 13B3 Assay, 33 uM: RLU ligand treated / RLU DMSO treated cells; for Fold Induction, 13B3 Assay, 3.3 uM / Fold Induction, 13B3 Assay, 33 uM / EC50: average of two wells; for Fold Induction, 13B3 Assay, 33 uM: 33 uM ligand; for 13B3 assay Rel Max FI: maximum fold induction at any concentration relative to that of GS-E ligand, CHO 13B3 cells; for EC50: read-out: 13B3 EC50, CHO 13B3 stable cell line, luciferase reporter, 48 h
From the text: GAL4 DBD-CfEcR(DEF)/VP16AD-MmRXRE:
The wild-type D, E, and F domains from spruce budworm Choristoneura fumiferana EcR (“CfEcR-DEF”; SEQ ID NO: 1) were fused to a GALA DNA binding domain (“Gal4DBD1-147”; SEQ ID NO: 2) and placed under the control of the SV40e promoter of pM vector (PT3119-5, Clontech, Palo Alto, Calif.). The D and E domains from Mus Musculus RXR (“MmRXR-DE”; SEQ ID NO: 11) were fused to the transactivation domain from VP16 (“VP16AD”; SEQ ID NO: 6) and placed under the control of the SV40e promoter of the pVP16 vector (PT3127-5, Clontech, Palo Alto, Calif.).
CHO cells were transiently transfected with transcription cassettes for GAL4 DBD-CJEcR(DEF) and for VP16AD-MmRXRE controlled by SV40e promoters. Stably transfected cells were selected using Hygromycin. Individually isolated CHO cell clones were transiently transfected with a GALA RE-luciferase reporter (pFR-Luc, Stratagene, La Jolla, Calif.). The 13B3 clone was selected using Zeocin.
Cells were trypsinized and diluted to a concentration of 2.5×10^4 cells mL. 100 μL of cell suspension was placed in each well of a 96 well plate and incubated at 37° C. under 5% CO2 for 24 h. Ligand stock solutions were prepared in DMSO and diluted 300 fold for all treatments. Dose response testing consisted of 8 concentrations ranging from 33 μM to 0.01 μM.
Luciferase reporter gene expression was measured 48 h after cell treatment using Bright-Glo™ Luciferase Assay System from Promega (E2650). Luminescence was detected at room temperature using a Dynex MLX microtiter plate luminometer.
Each assay was conducted in two separate wells, and the two values were averaged. Fold inductions were calculated by dividing relative light units (“RLU”) in ligand treated cells with RLU in DMSO treated cells. EC50s were calculated from dose response data using a three-parameter logistic model.

Compound	Fold Induction, Z3 Assay, 3.3 uM [1]	Fold Induction, Z3 Assay, 33 uM [1]	Z3 assay Rel Max FI [1]	EC50 [1] [nM]	Fold Induction, 13B3 Assay, 3.3 uM [2]	Fold Induction, 13B3 Assay, 33 uM [2]	13B3 assay Rel Max FI [2]	EC50 [2] [nM]
CCCCC(CC)N(NC(=O)c1cccc(C)c1C)C(=O)c1ccccc1 (racemic) [RG-103361]	171	244	0.938	526	504	2262	0.758	28000
COc1ccc(C(=O)NN(C(=O)c2cc(Cl)cc(Cl)c2)C(C)(C)C)cc1 [RG-101376]	1293	415	0.777	537	25656	7393	0.654	1360
CCc1c(OC)cccc1C(=O)NN(C(=O)c1cc(OC)c(OC)c(OC)c1)C(C)(C)C [RG-115329]	259	430	0.892	2570		5644		
Cc1c(C(=O)NN(C(=O)c2cc(Cl)cc(Cl)c2)C(C)(C)C)cccc1N(C)C [RG-101316]	1045	350	0.896	1580		1280		
Cc1ccc(C(=O)NN(C(=O)c2cc(C)cc(C)c2)C(C)(C)C)cc1 [RG-101542]	1151	324	0.793	324		439		
CCc1ccc(C(=O)NN(C(=O)c2cc(OC)c(C)c(OC)c2)C(C)(C)C)c(F)c1 [RG-115077]	294		0.911	389	932	199	1.509	847
CCc1ccc(C(=O)NN(C(=O)c2ccc(OC)nc2OC)C(C)(C)C)c(F)c1 [RG-115050]	424	1446	0.808	282	2027	894	0.724	762
Cc1cc(C)cc(C(=O)N(NC(=O)c2ccc3c(c2C)CCCO3)C(C)(C)C)c1 [RG-102408]	249		1.114	54	25		0.662	91
CCc1c(OC)cccc1C(=O)NN(C(=O)c1cccc(Br)c1)C(C)(C)C [RG-115038]	600	321	1.064	550	4119	4970	1.172	1740
CCc1c(OC)cccc1C(=O)NN(C(=O)c1cc(C)cc(C)c1)C(C)(C)COC(C)=O [RG-115310]	199	960	0.781	2630	2	3044	0.676	> 50000
CCc1c(OC)cccc1C(=O)NN(C(=O)c1cc(C)cc(C)c1)C(C)(C)C#N [RG-115043]	466	1588	0.943	178	835	547	0.852	2670
COc1cccc(C(=O)NN(C(=O)c2cc(C)cc(C)c2)C(C)(C)C)c1C[S+](C)[O-] (stereo not shown) [RG-115172]	1	216	0.32	> 50000	1		0	> 50000
CCc1c(OC)cccc1C(=O)NN(C(=O)c1cc(F)cc(C(F)(F)F)c1)C(C)(C)C [RG-115088]	561	228	0.958	501	542	1048	0.709	1830
COc1cc(F)ccc1C(=O)N(NC(=O)c1cccc(OC)c1C)C(C)(C)C [RG-100524]	991	146	1.002	263		1211		
Cc1cc(C)cc(C(=O)N(NC(=O)c2cccc(OC(C)C)c2C)C(C)(C)C)c1 [RG-101670]	1190	929	0.853	468	2297	738	0.874	646
CCc1c(OC)cccc1C(=O)NN(C(=O)c1cc(C)nc(Cl)c1)C(C)(C)C [RG-100667]	1480	238	0.890	347		1191		
